In brackets after ≈: the same amount, converted by molar mass. Several values for one entry are separate records, joined by “and”; a condition that tells them apart may be missing. Equal values may be shown once. Read-outs that look alike come from different tables or passages of the source.
What was measured:
[1] = tested on: Staphylococcus pseudintermedius isolates (MSSP and MRSP); test: Disk diffusion and Epsilometer susceptibility testing, Example 6; format: cell-based; details: 13 MRSP isolates
[2] = tested on: Staphylococcus aureus T3-129 / Staphylococcus spp. MK1; test: Synergy studies, checkerboard method (FIC index); format: cell-based; details: for FICI: FIC index of antibiotic with NCL812; for Result (interaction with NCL812): antibiotic with NCL812; for Antibiotic MIC With NCL812: antibiotic in combination with NCL812
S. pneumoniae isolates = test: Disk diffusion susceptibility (CLSI/EUCAST), Example 5; format: cell-based, Streptococcus pneumoniae
Procedure: Isolate susceptibility to 12 different antimicrobials (Table 16) was determined by CLSI and European Committee on Antimicrobial Susceptibility Testing (EUCAST) methods. Antimicrobials were selected based upon the CLSI and EUCAST guidelines. Standardised bacterial suspensions were spread onto MHSBA using a sterile cotton swab. Bacterial suspensions from of Streptococcus pneumoniae were standardised to an OD6O0 between 0.08 and 0.1 using a spectrophotometer and then diluted 1:20. Bacterial colonies were taken from an O/N horse blood agar plate. To ensure the purity of the 1:20 bacterial suspension, 50 μL was spread plated onto horse blood agar and incubated O/N at 37° C. with 5% CO2. The CFU was calculated and compared to the initial plate counts. Antibiotic disks (Purchased from Sigma Aldrich) were placed using a disk dispenser (Purchased from Oxoid) according to CLSI standards. MHSBA plates were incubated for 16 h-24 h at 37° C. in 5% CO2. Zones of complete inhibition were measured in triplicate to the nearest millimeter using a ruler on natural light-reflected growth, and the mode was represented as the diameter for each isolate. Pneumococcal isolates were categorised as sensitive, intermediate (I) or resistant (R) by CLSI standards and quality control (QC) ranges (Table 16).

Escherichia coli = test: Broth microdilution MIC, Example 7 (NCL812 and analogues); format: cell-based; details: E. coli, 24 hours; for MIC: Escherichia coli, read-out: MIC (μg/ml) at 24 hours E. coli
Pseudomonas aeruginosa = test: as above; format: cell-based; details: for MIC: Pseudomonas aeruginosa, 24 h, read-out: MIC (μg/ml) at 24 hours P. aeruginosa, P. aeruginosa, 24 hours
[3] = Bioassay ranking of the analogues tested; details: M + R (MRSA and VRE combined)
VRE = test: Broth microdilution MIC, Example 7 (NCL812 and analogues); format: cell-based, Enterococcus spp.; details: for activity against VRE among analogues: MIC testing, two VRE strains; for MIC (μg/ml) at 24 hours, VRE 1: VRE 1, 24 hours; for MIC (μg/ml) at 24 hours, VRE 2: VRE 2, 24 hours; for MIC: Enterococcus; for VRE / MIC: VRE
In short: (§1)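 CLSI broth microdilution against two MRSA and two VRE strains, tested in duplicate with a third run if results differed by more than one two-fold dilution.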

MRSA = test: as above; format: cell-based, Staphylococcus aureus; details: for activity against MRSA among analogues: MIC testing, two MRSA strains; for MIC (μg/ml) at 24 hours, MRSA 1: MRSA 1, 24 hours; for MIC (μg/ml) at 24 hours, MRSA 2: MRSA 2, 24 hours; for MIC: Staphylococcus aureus; for MRSA / MIC: MRSA
In short: as §1

[4] = tested on: S. aureus isolates (HA-MRSA, CA-MRSA, methicillin-susceptible staphylococci); test: Kirby-Bauer disc diffusion resistotyping, Example 4; format: cell-based, Staphylococcus aureus; details: for Total isolates resistant (Kirby-Bauer disc diffusion): all isolates (n = 30)
Procedure: Antibiotic-susceptibility profiling of the isolate collection was undertaken using Kirby-Bauer disc diffusion, as recommended by the Clinical and Laboratory Standards Institute (CLSI) on Mueller-Hinton agar. Isolates were grown overnight on SBA at 37° C. Colonies were suspended in physiological saline. Turbidity was adjusted to a 0.5 McFarland standard and suspensions were spread over the medium. Antibiotic discs according to Table 9 below were transferred onto the inoculated medium and analysed after 24 h incubation at 37° C.

[5] = 24 h, read-out: MIC (μg/ml) at 24 hours VRE 1, VRE 1, 24 hours
[6] = 24 h, read-out: MIC (μg/ml) at 24 hours VRE 2, VRE 2, 24 hours
[7] = bioassay ranking, read-out: VRE
[8] = 24 h, read-out: MIC (μg/ml) at 24 hours MRSA 1, MRSA 1, 24 hours
[9] = 24 h, read-out: MIC (μg/ml) at 24 hours MRSA 2, MRSA 2, 24 hours
[10] = bioassay ranking, read-out: MRSA
[11] = Methicillin-susceptible staphylococci (n = 10)

## O=C(N[C@H](CO)[C@H](O)c1ccc([N+](=O)[O-])cc1)C(Cl)Cl [Chloramphenicol]
[1]
  MRSP isolates susceptible: 23%
[2]; S. aureus strain T3-29
  FICI: 0.75 and 0.562
  Antibiotic MIC Alone: 8 µg/mL and 4 µg/mL
  Result (interaction with NCL812): NE (No effect (NE) was defined as 0.5<FICI<4)
S. pneumoniae isolates; A66.1
  disk diffusion zone diameter: 34 mm
S. pneumoniae isolates; D39
  disk diffusion zone diameter: 31 mm
S. pneumoniae isolates; EF3030
  disk diffusion zone diameter: 29 mm
S. pneumoniae isolates; L82016
  disk diffusion zone diameter: 26 mm
S. pneumoniae isolates; P9
  disk diffusion zone diameter: 31 mm
S. pneumoniae isolates; P21
  disk diffusion zone diameter: 35 mm
S. pneumoniae isolates; TIGR4
  disk diffusion zone diameter: 32 mm
S. pneumoniae isolates; WCH16
  disk diffusion zone diameter: 11 mm
S. pneumoniae isolates; WCH16 (Table 18)
  disk diffusion susceptibility category: R
S. pneumoniae isolates; WCH43
  disk diffusion zone diameter: 26 mm
S. pneumoniae isolates; WCH46
  disk diffusion zone diameter: 28 mm
S. pneumoniae isolates; WCH57
  disk diffusion zone diameter: 40 mm
S. pneumoniae isolates; WCH77
  disk diffusion zone diameter: 36 mm
S. pneumoniae isolates; WCH86
  disk diffusion zone diameter: 34 mm
S. pneumoniae isolates; WCH89
  disk diffusion zone diameter: 32 mm
S. pneumoniae isolates; WCH92
  disk diffusion zone diameter: 32 mm
S. pneumoniae isolates; WCH137
  disk diffusion zone diameter: 31 mm
S. pneumoniae isolates; WCH158
  disk diffusion zone diameter: 34 mm
S. pneumoniae isolates; WCH184
  disk diffusion zone diameter: 29 mm
S. pneumoniae isolates; WCH211
  disk diffusion zone diameter: 32 mm
S. pneumoniae isolates; WU2
  disk diffusion zone diameter: 30 mm

## Cl.N=C(N/N=C/c1ccc(Cl)cc1F)N/N=C/c1ccc(Cl)cc1F [NCL216]
Escherichia coli
  MIC (μg/ml) at 24 hours, E. coli: >128 µg/mL
Pseudomonas aeruginosa
  MIC (μg/ml) at 24 hours, P. aeruginosa: >128 µg/mL
[3]
  M + R: 2.75 µg/mL
VRE
  activity against VRE among analogues: greatest activity
  MIC (μg/ml) at 24 hours, VRE 1: 2 µg/mL
  MIC (μg/ml) at 24 hours, VRE 2: 4 µg/mL
VRE; bioassay ranking
  VRE: 3 µg/mL
MRSA
  activity against MRSA among analogues: greatest activity
  MIC (μg/ml) at 24 hours, MRSA 1: 2 µg/mL and 4 µg/mL
  MIC (μg/ml) at 24 hours, MRSA 2: 2 µg/mL
MRSA; bioassay ranking
  MRSA: 2.5 µg/mL

## C/C(=N\NC(=N)N/N=C(\C)c1ccc(C)cc1)c1ccc(C)cc1.Cl [NCL217]
Escherichia coli
  MIC: > 128 µg/mL
Pseudomonas aeruginosa
  MIC: > 128 µg/mL
[3]
  M + R: 3.5 µg/mL
VRE; [5]
  MIC: 2 µg/mL
VRE; [6]
  MIC: 4 µg/mL
VRE; [7]
  MIC: 3 µg/mL
VRE
  activity against VRE among analogues: greatest activity
MRSA
  activity against MRSA among analogues: greatest activity
MRSA; [8]
  MIC: 4 µg/mL
MRSA; [9]
  MIC: 4 µg/mL
MRSA; [10]
  MIC: 4 µg/mL

## C/C(=N\NC(=N)N/N=C(\C)c1ccc(C(C)(C)C)cc1)c1ccc(C(C)(C)C)cc1.Cl [NCL219]
Escherichia coli
  MIC: > 128 µg/mL
Pseudomonas aeruginosa
  MIC: > 128 µg/mL
[3]
  M + R: 9 µg/mL
VRE; [5]
  MIC: 16 µg/mL
VRE; [6]
  MIC: 16 µg/mL
VRE; [7]
  MIC: 16 µg/mL
VRE
  activity against VRE among analogues: greatest activity
MRSA
  activity against MRSA among analogues: greatest activity
MRSA; [8]
  MIC: 2 µg/mL
MRSA; [9]
  MIC: 2 µg/mL
MRSA; [10]
  MIC: 2 µg/mL

## Nc1nc(N/N=C/c2ccc(F)cc2)cc(N/N=C/c2ccc(F)cc2)n1 [NCL220]
Escherichia coli
  MIC (μg/ml) at 24 hours, E. coli: >128 µg/mL
Pseudomonas aeruginosa
  MIC (μg/ml) at 24 hours, P. aeruginosa: >128 µg/mL
[3]
  M + R: 24 µg/mL
VRE
  activity against VRE among analogues: greatest activity
  MIC (μg/ml) at 24 hours, VRE 1: 32 µg/mL (≈ 87.1 µM)
  MIC (μg/ml) at 24 hours, VRE 2: 32 µg/mL (≈ 87.1 µM)
VRE; bioassay ranking
  VRE: 32 µg/mL
MRSA
  activity against MRSA among analogues: greatest activity
  MIC (μg/ml) at 24 hours, MRSA 1: 16 µg/mL (≈ 43.6 µM)
  MIC (μg/ml) at 24 hours, MRSA 2: 16 µg/mL (≈ 43.6 µM)
MRSA; bioassay ranking
  MRSA: 16 µg/mL

## Nc1nc(N/N=C/c2ccc(C(F)(F)F)cc2)cc(N/N=C/c2ccc(C(F)(F)F)cc2)n1 [NCL221]
Escherichia coli
  MIC: > 128 µg/mL
Pseudomonas aeruginosa
  MIC: > 128 µg/mL
[3]
  M + R: 33.5 µg/mL
VRE; [5]
  MIC: 64 µg/mL (≈ 137 µM)
VRE; [6]
  MIC: 64 µg/mL (≈ 137 µM)
VRE
  activity against VRE among analogues: greatest activity
MRSA
  activity against MRSA among analogues: greatest activity
MRSA; [8]
  MIC: 4 µg/mL (≈ 8.56 µM)
MRSA; [9]
  MIC: 2 µg/mL (≈ 4.28 µM)
MRSA; [10]
  MIC: 3 µg/mL (≈ 6.42 µM)

## CC1(C)S[C@@H]2[C@H](NC(=O)Cc3ccccc3)C(=O)N2[C@H]1C(=O)O [Penicillin G]
[2]; Staphylococcus spp. Strain MK1
  FICI: 1 and 0.625
  Antibiotic MIC Alone: 0.125 µg/mL and 0.25 µg/mL
  Antibiotic MIC With NCL812: 0.062 µg/mL and 0.031 µg/mL
  Result (interaction with NCL812): NE (No effect (NE) was defined as 0.5<FICI<4)

## Cc1cc(NS(=O)(=O)c2ccc(N)cc2)no1 [Sulfamethoxazole]
[2]; Staphylococcus spp. Strain MK1
  FICI: 0.75 and 1
  Antibiotic MIC Alone: 8 µg/mL
  Antibiotic MIC With NCL812: 4 µg/mL
  Result (interaction with NCL812): NE (No effect (NE) was defined as 0.5<FICI<4)
[2]; Staphylococcus spp. Strain MK1, MIC of antibiotic in combination with NCL812/MIC of antibiotic alone
  FIC1: 0.5

## CN(C)[C@@H]1C(O)=C(C(N)=O)C(=O)[C@@]2(O)C(O)=C3C(=O)c4c(O)cccc4[C@@](C)(O)[C@H]3C[C@@H]12 [Tetracycline]
[4]; CA-MRSA (n = 10)
  isolates resistant (Kirby-Bauer disc diffusion): 30.00%
[4]; HA-MRSA (n = 10)
  isolates resistant (Kirby-Bauer disc diffusion): 30.00%
[4]; [11]
  isolates resistant (Kirby-Bauer disc diffusion): 0.00%
[4]
  Total isolates resistant (Kirby-Bauer disc diffusion): 20.00%
[2]; S. aureus strain T3-29
  FICI: 0.625 and 0.75 and 0.62
  Antibiotic MIC Alone: 0.25 µg/mL and 0.5 µg/mL
  Result (interaction with NCL812): NE (No effect (NE) was defined as 0.5<FICI<4)
S. pneumoniae isolates; A66.1
  disk diffusion zone diameter: 32 mm
S. pneumoniae isolates; D39
  disk diffusion zone diameter: 35 mm
S. pneumoniae isolates; EF3030
  disk diffusion zone diameter: 34 mm
S. pneumoniae isolates; L82016
  disk diffusion zone diameter: 32 mm
S. pneumoniae isolates; P9
  disk diffusion zone diameter: 32 mm
S. pneumoniae isolates; P21
  disk diffusion zone diameter: 38 mm
S. pneumoniae isolates; TIGR4
  disk diffusion zone diameter: 35 mm
S. pneumoniae isolates; WCH16
  disk diffusion zone diameter: 18 mm
S. pneumoniae isolates; WCH16 (Table 19)
  disk diffusion susceptibility category: R
S. pneumoniae isolates; WCH43
  disk diffusion zone diameter: 31 mm
S. pneumoniae isolates; WCH46
  disk diffusion zone diameter: 30 mm
S. pneumoniae isolates; WCH57
  disk diffusion zone diameter: 48 mm
S. pneumoniae isolates; WCH77
  disk diffusion zone diameter: 39 mm
S. pneumoniae isolates; WCH86
  disk diffusion zone diameter: 31 mm
S. pneumoniae isolates; WCH89
  disk diffusion zone diameter: 35 mm
S. pneumoniae isolates; WCH92
  disk diffusion zone diameter: 29 mm
S. pneumoniae isolates; WCH137
  disk diffusion zone diameter: 37 mm
S. pneumoniae isolates; WCH158
  disk diffusion zone diameter: 35 mm
S. pneumoniae isolates; WCH184
  disk diffusion zone diameter: 11 mm
S. pneumoniae isolates; WCH184 (Table 19)
  disk diffusion susceptibility category: R
S. pneumoniae isolates; WCH211
  disk diffusion zone diameter: 36-37 mm
S. pneumoniae isolates; WU2
  disk diffusion zone diameter: 34 mm

## Gentamicin
[4]; CA-MRSA (n = 10)
  isolates resistant (Kirby-Bauer disc diffusion): 0.00%
[4]; HA-MRSA (n = 10)
  isolates resistant (Kirby-Bauer disc diffusion): 20.00%
[4]; [11]
  isolates resistant (Kirby-Bauer disc diffusion): 0.00%
[4]
  Total isolates resistant (Kirby-Bauer disc diffusion): 20.00%
[2]; Staphylococcus spp. Strain MK1
  FICI: 0.625 and 0.75 and 0.515
  Antibiotic MIC Alone: 1 µg/mL and 0.5 µg/mL
  Result (interaction with NCL812): NE (No effect (NE) was defined as 0.5<FICI<4)

From patent publication US10253002B2, “Compounds and methods of treating infections” (Neoculi Pty Ltd., priority 2013, dated 2019)
